Where two headings read alike, the source gives them in different places.
Legend:
human NK(1) receptor = human NK(1) receptor (Homo sapiens, UniProt P25103); details: cited from earlier work
[1] = test system: canine neutrophils stimulated by platelet activating factor; test: In vitro superoxide anion generation by PAF-activated neutrophils; format: cell-based; details: PAF 100 nmol; 0.1 to 10 uM L, 0.1 to 100 uM ADO; synergy at 1 uM, 5 uM and 10 uM
Description: PMNs were isolated using the Ficoll-Pacque (Sigma Chemical, St. Louis, Mo.) technique. The cells were adjusted to ˜9×10^7 cells/ml. […] Superoxide anion (—O.2) production by neutrophils stimulated by platelet activating factor (100 nmol) were determined by measuring the superoxide dismutase-inhibitable reduction of ferricytochrome c to ferrocytochrome c spectrophotometrically at 550 nm using a V-Max Microtiter Plate Reader (Molecular Devices, Palo Alto, Calif.). […] Concentrations indicated are final concentrations in each cuvette.

[2] = i.v., cited from earlier work
in vivo rabbit model = details: reduced MAP similar to CCPA; cited from earlier work
[3] = test system: A-V nodal and SA pacemakers; details: cited from earlier work

Sequence of human NK(1) receptor (P25103 whole entry): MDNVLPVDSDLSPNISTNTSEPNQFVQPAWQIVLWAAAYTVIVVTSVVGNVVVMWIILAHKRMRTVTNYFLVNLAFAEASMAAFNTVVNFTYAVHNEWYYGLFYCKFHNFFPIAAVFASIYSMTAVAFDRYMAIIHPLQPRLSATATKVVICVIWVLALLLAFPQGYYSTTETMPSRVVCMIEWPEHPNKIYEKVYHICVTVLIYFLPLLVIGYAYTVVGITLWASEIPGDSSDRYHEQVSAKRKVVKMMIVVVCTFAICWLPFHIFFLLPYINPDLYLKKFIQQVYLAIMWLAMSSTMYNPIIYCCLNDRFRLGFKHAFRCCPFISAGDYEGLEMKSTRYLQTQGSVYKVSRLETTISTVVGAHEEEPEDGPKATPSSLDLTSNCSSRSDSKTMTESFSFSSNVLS

Row | SMILES | superoxide anion generation [1] | effect on infarct size (in vivo rabbit model) | further results
1 | Cc1cccc(C)c1NC(=O)C[C@H]1CCN(C(=O)c2cc(C(F)(F)F)cc(C(F)(F)F)c2)[C@@H](Cc2ccccc2)C1.O=C(O)C[C@H](O)C(=O)O (relative stereo) [R116301, (2R-trans)-4-[1-[3,5-bis(trifluoromethyl)benzoyl]-2-(phenylmethyl)-4-piperidinyl]-N-(2,6-dimethylphenyl)-1-acetamide (S)-Hydroxybutanedioate] | – | – | Ki (human NK(1) receptor): 0.45 nM; selectivity toward NK(2) and NK(3) receptors (human NK(1) receptor): over 200 fold
2 | CCN(CC)CC(=O)Nc1c(C)cccc1C [Lido-only, lidocaine] | reduce superoxide anion generation | – | maximum safe dose ([2]; with epinephrine): ~7 mg/kg; maximum safe dose ([2]; without epinephrine): approximately 4 mg/kg
3 | CC(C)NCC(O)COc1ccc(CC(N)=O)cc1 (stereo not shown) [atenolol] | – | did not change infarct size | –
4 | CCNC(=O)[C@H]1O[C@@H](n2cnc3c(N)ncnc32)[C@H](O)[C@@H]1O [NECA, 5′-N-ethyl-carboxamindoadenosine] | – | did not change infarct size | –
5 | CCCCC#Cc1nc(N)c2ncn([C@@H]3O[C@H](C(=O)NCC)[C@@H](O)[C@H]3O)c2n1 [2HE-NECA, 2-hexynyl-5′-N-ethyl-carboxamindoadenosine] | – | did not change infarct size | –
6 | Nc1ncnc2c1ncn2[C@@H]1O[C@H](CO)[C@@H](O)[C@H]1O [Ado-only, adenosine] | reduce superoxide anion generation | – | effectiveness in slowing the conductance of A-V nodal relative to SA pacemakers [3]: 30 times

Source: patent US20060034941A1, “Organ preconditioning, arrest, protection, preservation and recovery” (priority 2002, published 2006)
